Measured values as given in PubChem BioAssay (NCI).
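Interpolation was linear, between the two tested concentrations surrounding the appropriate level; five concentrations were tested over 48 hours in 96-well plates. Abbreviation: GI50, concentration required for 50% inhibition of growth. TGI marks complete inhibition of growth.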 Where a SMILES comes first, the peptide text is derived from it. [ ]: non-standard residue; d: D form. The star is where a group is joined. Bn2Val = CC(C)[C@@H](C(=O)*)N(Cc1ccccc1)Cc1ccccc1; NMeV = CN[C@H](C(=O)O)C(C)C; X29 = COc1ccc(CN*)c(OC)c1; dNMeA = CN[C@H](C)C(=O)O

Legend:
Experiment in all cases: growth of human tumour cells (NCI), 48 h
HOP-62 NSCLC = system: HOP-62 NSCLC
DU-145 prostate = system: DU-145 prostate
SK-MEL-2 melanoma = system: SK-MEL-2 melanoma
MOLT-4 leukemia = system: MOLT-4 leukemia
SK-OV-3 ovarian = system: SK-OV-3 ovarian
CAKI-1 renal = system: CAKI-1 renal
SR leukemia = system: SR leukemia
SK-MEL-28 melanoma = system: SK-MEL-28 melanoma

Compound	TGI (HOP-62 NSCLC) [µM]	TGI (DU-145 prostate) [µM]	TGI (SK-MEL-2 melanoma) [µM]	TGI (MOLT-4 leukemia) [µM]	TGI (SK-OV-3 ovarian) [µM]	TGI (CAKI-1 renal) [µM]	TGI (SR leukemia) [µM]	TGI (SK-MEL-28 melanoma) [µM]	GI50 (SR leukemia) [µM]	GI50 (HOP-62 NSCLC) [µM]	GI50 (DU-145 prostate) [µM]	GI50 (SK-MEL-2 melanoma) [µM]	GI50 (MOLT-4 leukemia) [µM]
O=S(=O)(c1ccc(-c2nnc(-c3ccc(F)cc3)o2)cc1)c1ccc(-c2nnc(-c3ccc(F)cc3)o2)cc1	> 100	> 100	> 100	> 100	90.3	> 100							
COc1ccc(C(Cc2ccccc2)C2NC(=S)NC2=O)cc1 (stereo not drawn)	> 25	> 25	> 25	> 25	> 25	> 25	> 25	> 25					
O=C1CC(C(CC(=O)c2ccccc2)c2ccccc2)C(=O)c2ccccc2N1 (stereo not drawn)	> 100	> 100	41.4	61.2	> 100		> 100						
Cc1ccnc2nc(N)ccc12		> 100	> 100	> 100	> 100	> 100	> 100	> 100					
CC(C)(O)C1CC[C@]2(C)[C@H]3CC[C@@H]4[C@@]5(C)CCCC(C)(C)[C@@H]5CC[C@@]4(C)[C@]3(C)CC[C@@H]12 (stereo partly drawn)	> 100	> 100	> 100	> 100	> 100	> 100		> 100					
Nc1cccc(S(=O)(=O)Nc2nnc(S(N)(=O)=O)s2)c1	> 100	> 100	> 100	> 100	> 100	> 100	> 100	> 100					
OCC(CCc1ccccc1I)C1=CCC2(CC1)OCCO2 (stereo not drawn)	37.4	48	51	> 100	> 100	65.2	> 100	35					
Oc1ccccc1C1C=C(c2ccccc2)NC(N2CCCCC2)=C1c1nc2ccccc2[nH]1 (stereo not drawn)	27.4	66.6		57.6	26.4		35.3	30.6					
CC12CCCCC1=[N+]([O-])C(C)(C)N2O (stereo not drawn)	> 100	> 100	> 100		> 100	> 100	> 100	> 100					
COc1ccccc1N=Nc1c(O)c(S(=O)(=O)O)cc2cc(S(=O)(=O)O)ccc12	> 100	> 100	> 100	> 100	> 100	> 100	> 100	> 100					
CC1(C)CC2(C)CC1CC2(O)c1ccccc1 (stereo not drawn)	> 100	> 100		> 100	> 100	> 100	> 100	> 100					
NC(Cc1c[nH]c2cc([N+](=O)[O-])ccc12)C(=O)O (stereo not drawn)	> 100	> 100	> 100	> 100	> 100	> 100	> 100	> 100					
Cc1cccc2nc3c(=O)[nH]c(=O)nc-3n(C)c12	> 100	> 100	> 100	> 100	> 100	> 100		> 100					
O=C1C=C2CCC[C@H]3OC(=O)C[C@@]23CC1	> 100	> 100	> 100	> 100	> 100	> 100	> 100	> 100					
CC(=O)OC1C2CCC3C(C)(O)C4CC(O)C(C)(C)C4(O)C(O)CC13CC2(C)O (stereo not drawn)	> 100	> 100	> 100		> 100	> 100	> 100						
COC(=O)c1c(CC(Cc2ccc3c(c2)CCCC3)C(=O)OC)ccc2c1CCCC2 (stereo not drawn)	> 100	> 100	> 100	> 100	> 100	> 100	86.7	> 100					
COc1ccc(CNC(=O)[C@@H]2CCCN2C(=O)[C@@H](C)N(C)C(=O)[C@H](C(C)C)N(C)C(=O)[C@@H](NC(=O)[C@H](C(C)C)N(Cc2ccccc2)Cc2ccccc2)C(C)C)c(OC)c1 (Bn2Val-V[NMeV][dNMeA]P-X29)	21.1	20.7	3.45		63.2	15.5		10.2					
[O-][n+]1c(CN2CCCCC2)nc2cccc3c2c1-c1ccccc1-3	48.6	41.5	43.7	> 100	92.5	81.7	> 100	> 100					
CC(C)(C)CC(C)(C)NC(=S)NO	> 100	> 100	> 100	> 100	> 100	> 100	> 100	> 100					
N#C/C(=C\c1ccc([N+](=O)[O-])s1)c1nc2cc(Cl)ccc2s1	5.44	> 100	3.7	> 100			> 100		0.323	1.83	2.75	1.25	2.11
CN1CN(c2ccccc2)C2(CCN(CCCCCCF)CC2)C1=O	93.3	> 100		> 100	> 100	> 100	> 100	> 100					
O=c1[nH]c(=O)n(COCCO)c2ccsc12	> 100	> 100	> 100	> 100		> 100	> 100	> 100					
Cc1ccc(-n2cc(-c3ccc(Cl)cc3)c3c(NN)ncnc32)cc1	22.6	12.8	47.1	11.5	44.2	8.73	9.28	18.8					
Cn1c([C@H](C#N)C(=O)c2cc(O)ccc2[N+](=O)[O-])nc2ccccc21	> 100	> 100	> 100	> 100		> 100	> 100	> 100					
Cc1ccc(S(=O)(=O)NC(=O)NC(CCCCN=C(N)N)C(=O)O)cc1 (stereo not drawn)	> 100	> 100	> 100	> 100	> 100		> 100	> 100					
